Assay results: PMC9296983, “Synthesis and HDAC inhibitory activity of pyrimidine-based hydroxamic acids” (Beilstein Journal of Organic Chemistry, 2022)

Key:
HDAC4 = molecular target: T1, HDAC4 (Homo sapiens, UniProt P56524); test: HDAC enzyme activity assay (fluorogenic, Boc-Lys(trifluoroacetyl)-AMC substrate), HDAC4; assay type: biochemical; details: recombinant HDAC4; BOC-LYS-(TFA)-AMC as substrate, 100 mM TRIS, 300 mM KCl, pH 8.0 buffer, 30 °C
T1 construct: made in house
Method: (§1) Compounds 12–18 and 25–31 were tested as inhibitors of HDAC4 and HDAC8 isoforms according to the procedures described previously. […]. […]
(§2) HDAC enzyme activity assay
Recombinant HDAC4 and 8 were produced as described in [3]. Serial dilutions of the inhibitor in the assay buffer (25 mM Tris -HCl, pH 8.0, 75 mM KCl, 0.001 % Pluronic F-127) were incubated with HDAC in a black 96-well microtiter half -area plate (Greiner) for 60 min at 30 °C. Subsequentl y the reaction was started by the addition of 20 μM Boc -Lys(trifluoroacetyl) -AMC (Bachem) as a substrate.
(§3) After incubation for 60 min at 30 °C, the reaction was stopped by the addition of 1.7 μM SATFMK.
(§4) The deacetylated substrate was transformed into a flu orescent product by the addition of 0.4 mg/m L trypsin (Applichem). The release of AMC was followed in a microplate reader (PheraStar Plus, BMG Labtech) at 450 nm (λ Ex = 350 nm) and correlated to enzyme activity. Dose–response curves were produced with GraphPad Prism and fitted to a four parameters logistic function to obtain IC50 values […]
(§5) in which EA is the enzyme activity at a given inhibitor concentration x; Emax and E0 are the enzyme activities determined at zero and complete inhibition, respectively; IC50 represents the inhibitor concentration at which half the enzyme molecules are inhibited; h is the slope of the curve. […]
(§6) (1 picture or pasted object on this page, not shown here)

HDAC8 = molecular target: T2, HDAC8 (Homo sapiens, UniProt Q9BY41); test: HDAC enzyme activity assay (fluorogenic, Boc-Lys(trifluoroacetyl)-AMC substrate), HDAC8; assay type: biochemical; details: recombinant HDAC8; BOC-LYS-(TFA)-AMC as substrate, 100 mM TRIS, 300 mM KCl, pH 8.0 buffer, 30 °C
T2 construct: made in house
T2 sequence (Q9BY41 1-377): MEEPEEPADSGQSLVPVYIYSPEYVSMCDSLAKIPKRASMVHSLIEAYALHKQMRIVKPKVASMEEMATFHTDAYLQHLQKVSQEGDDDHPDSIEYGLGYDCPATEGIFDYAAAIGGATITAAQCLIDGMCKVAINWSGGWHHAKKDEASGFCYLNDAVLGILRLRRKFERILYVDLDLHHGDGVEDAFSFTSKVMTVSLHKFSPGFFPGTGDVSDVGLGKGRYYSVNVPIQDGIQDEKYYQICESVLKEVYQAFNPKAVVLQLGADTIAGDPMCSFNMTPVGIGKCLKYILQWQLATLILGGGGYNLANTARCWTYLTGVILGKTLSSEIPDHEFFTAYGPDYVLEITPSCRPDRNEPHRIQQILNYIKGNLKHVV
Method: as §1, §2
Recombinant HDAC4 and 8 were produced as described in [3]. […]
HDAC in a black 96-well microtiter half -area plate (Greiner) for 60 min at 30 °C. Subsequentl y the reaction was started by the addition of 20 μM Boc -Lys(trifluoroacetyl) -AMC (Bachem) as a substrate.
as §3, §4, §5, §6

T1 sequence (P56524 whole entry, species assumed): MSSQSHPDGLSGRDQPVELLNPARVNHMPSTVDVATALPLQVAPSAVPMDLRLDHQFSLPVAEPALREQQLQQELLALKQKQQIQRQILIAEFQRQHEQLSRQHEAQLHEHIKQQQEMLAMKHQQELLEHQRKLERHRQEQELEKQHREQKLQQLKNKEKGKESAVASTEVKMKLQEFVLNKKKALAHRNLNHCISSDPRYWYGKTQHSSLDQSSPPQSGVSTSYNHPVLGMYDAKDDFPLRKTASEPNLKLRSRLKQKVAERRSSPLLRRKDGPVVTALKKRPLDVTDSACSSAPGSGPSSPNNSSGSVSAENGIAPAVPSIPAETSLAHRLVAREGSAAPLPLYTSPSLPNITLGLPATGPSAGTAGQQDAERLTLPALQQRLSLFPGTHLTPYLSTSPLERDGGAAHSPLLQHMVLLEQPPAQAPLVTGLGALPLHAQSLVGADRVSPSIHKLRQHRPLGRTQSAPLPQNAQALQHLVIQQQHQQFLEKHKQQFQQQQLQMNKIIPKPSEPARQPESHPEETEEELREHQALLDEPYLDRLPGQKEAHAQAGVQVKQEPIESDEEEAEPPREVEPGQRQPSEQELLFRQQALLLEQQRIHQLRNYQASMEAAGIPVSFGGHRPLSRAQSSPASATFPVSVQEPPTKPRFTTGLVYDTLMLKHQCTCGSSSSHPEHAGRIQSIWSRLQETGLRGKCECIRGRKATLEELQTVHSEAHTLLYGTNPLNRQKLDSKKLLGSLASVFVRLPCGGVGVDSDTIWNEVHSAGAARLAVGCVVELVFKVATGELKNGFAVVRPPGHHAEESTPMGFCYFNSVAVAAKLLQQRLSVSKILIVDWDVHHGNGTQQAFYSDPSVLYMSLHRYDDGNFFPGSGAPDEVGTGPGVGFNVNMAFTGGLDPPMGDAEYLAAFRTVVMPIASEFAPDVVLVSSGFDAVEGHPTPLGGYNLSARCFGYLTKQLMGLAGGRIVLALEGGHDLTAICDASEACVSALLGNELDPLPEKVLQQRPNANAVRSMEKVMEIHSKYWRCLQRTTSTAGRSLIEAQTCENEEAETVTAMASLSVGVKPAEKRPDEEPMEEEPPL

| melting point | IC50 (HDAC4) | IC50 (HDAC8) | Compound |
| --- | --- | --- | --- |
| 150 to 151 °C | > 50 µM | 5.65 µM | CSc1nc(C)cc(OCCCC(=O)NO)n1 [compound 25] |
| 168 to 170 °C | – | 14 µM | Cc1cc(OCC(=O)NO)nc(NCc2ccccc2)n1 [compound 15] |
| 133 to 135 °C | > 35 µM | > 35 µM | CCCc1c(C)nc(SC)n(CCCC(=O)NO)c1=O [compound 31, N-Hydroxy-4-[6-methyl-2-(methylthio) -4-oxo-5-propylpyrimidin-3(4H)-yl]butanamide] |
| 192 to 194 °C | – | 35 µM | Cc1cc(OCC(=O)NO)nc(N(C)C)n1 [compound 16] |
| 175 to 176 °C | – | 13 µM | CCSc1nc(C)cc(OCC(=O)NO)n1 [compound 13] |
| 182 to 184 °C | 38 µM | 28 µM | CSc1nc(C)cc(OCC(=O)NO)n1 [compound 12] |
| 178 to 180 °C | – | 13 µM | Cc1cc(OCC(=O)NO)nc(N2CCCC2)n1 [compound 17] |
| – | 16.6 µM | 1.2 µM | CCCc1c(C)nc(SC)nc1OCCCCCC(=O)NO [compound 29, N-hydroxy-6-[6-methyl-2-(methylthio)-5-propylpyrimidin-4-yloxy]hexanamide] |
| 125 to 127 °C | > 35 µM | 2.4 µM | CCCc1c(C)nc(SC)nc1OCCCC(=O)NO [compound 28] |
| 190 to 191 °C (dec.) | – | 60 µM | Cc1cc(OCC(=O)NO)nc(O)n1 [compound 18] |
| 185 to 187 °C | > 35 µM | > 35 µM | CCCc1c(C)nc(SC)n(CC(=O)NO)c1=O [compound 30, N-Hydroxy-[6-methyl-2-(methylthio) -4-oxo-5-propylpyrimidin-3(4H)-yl]acetamide] |
| 177 to 179 °C | – | 15 µM | C=CCNc1nc(C)cc(OCC(=O)NO)n1 [compound 14] |
| 144 to 146 °C | 38 µM | 1.4 µM | CCCc1c(C)nc(SC)nc1OCC(=O)NO [compound 27] |
| 112 to 113 °C | > 50 µM | 2.05 µM | CSc1nc(C)cc(OCCCCCC(=O)NO)n1 [compound 26] |
